For one assay, the system named is spleen cells. Briefly: Th1/Th2 cytokine profiling assay (Ovalbumin-restimulated spleen cells, CBA kit). The assay is classed as cell-based, Balb/c mice. To be noted: 10 micrograms per ml; Ovalbumin restimulation, 72 hours.
In assay [1] the test system is Human Peripheral Blood Mononuclear Cells (PBMC). Briefly: B cell proliferation assay (SAC plus Interleukin-2, 3H-thymidine). The assay is classed as cell-based. To be noted: 10 micrograms per ml.
Procedure: Human Peripheral Blood Mononuclear Cells (PBMC) were obtained from normal human donors. The B cell proliferation was induced by stimulation of the cells with the B cell mitogen Staphylococcus aureus Cowans I (SAC) plus Interleukin-2, either in the absence (positive proliferation control), or in the presence of test peptides—10 micrograms per ml—to examine their effects on the B cell response. 10^5/well PBMC were plated in 96-well microtiter plates and assayed in duplicate with the peptides. […] At the end of incubation time, the plates were harvested and the cells counted by liquid scintillation for the incorporation of ^3H-thymidine as a measure of B cell proliferation.
In assay [2] the test system is hepatitis B virus (HBV) ayw strain. Description: HBV experimental assay system, secreted HBV DNA by TaqMan PCR in HepG2-2.2.15. Format: cell-based. To be noted: 10 micrograms per ml; HepG2-2.2.15 cells, six days.
Procedure: HepG2-2.2.15 is a stable cell line containing the hepatitis B virus (HBV) ayw strain genome (ATCC Cat. No. CRL-11997). Antiviral compounds blocking any late step of viral replication such as transcription, translation, pregenome encapsidation, reverse transcription, particle assembly and release can be identified and characterized using this cell line.
HepG2-2.2.15 cells were plated in 96-well microtiter plates. After 16-24 hours the confluent monolayer of HepG2-2.2.15 cells was washed and the medium was replaced with complete medium containing test peptides-10 micrograms per ml—in duplicate. […] Three days later the culture medium was replaced with fresh medium containing the peptides. Six days following the initial administration of the peptides, the cell culture supernatants was collected, treated with pronase and DNAse and then used in a real-time quantitative TaqMan PCR assay. The PCR-amplified HBV DNA was detected in real-time by monitoring increases in fluorescence signals that result from the exonucleolytic degradation of a quenched fluorescence probe molecule that hybridizes to the mplified HBV DNA. For each PCR amplification, a standard curve was simultaneously generated using dilutions of purified HBV DNA.
Antiviral activity was calculated from the reduction in HBV DNA levels (% virus control). […]
The test system of the next assay is human macrophages. Description: TNF alpha production assay (LPS-stimulated macrophages, ELISA). The assay is classed as cell-based. The note with it: 10 micrograms per ml, 30 min preincubation; LPS 200 ng/ml, overnight. For orientation: ELISA stands for enzyme-linked immunosorbent assay.
The subject of another assay is Human A549 cells. Briefly: Apoptosis prevention assay (C2 ceramide, Annexin-5). Format: cell-based. The note with it: 10 micrograms per ml, 30 min pretreatment.
In assay [3] the test system is Human Peripheral Blood Mononuclear Cells (PBMC). Briefly: T cell proliferation assay (PHA, 3H-thymidine). The note with it: 10 micrograms per ml, 3H-thymidine incorporation.
Procedure: Human Peripheral Blood Mononuclear Cells (PBMC) were obtained from normal human donors. The T cell proliferation was induced by stimulation of the cells with the T cell mitogen phytohemagglutinin (PHA), either in the absence (positive proliferation control), or in the presence of test peptides—10 micrograms per ml—to examine their effects on the T cell proliferating response. 10^5/well PBMC were plated in 96-well microtiter plates and assayed in duplicate with the peptides. […] At the end of incubation time, the plates were harvested and the cells counted by liquid scintillation for the incorporation of ^3H-thymidine as a measure of T cell proliferation.

No end group written: not given here.

Procedure for Human A549 cells: Human A549 cells (carcinomic human alveolar basal epithelial cells) were utilized in the experiments employing the Annexin-5 apoptosis assay. […] A549 cells were pretreated for 30 min with test peptides—10 micrograms per ml—followed by the exposure to C2 ceramide.
Procedure for human macrophages: Human Peripheral Blood Mononuclear Cells (PBMC) were obtained from normal human donors. The macrophages were prepared by adherence of PBMC to the plastic wells of the plates. […] Not stimulated macrophages served as negative background control. After overnight incubation, supernatants from the control and LPS-stimulated cultures were harvested and assayed for TNF alpha production employing a TNF alpha specific ELISA.

Take “Tyr-Pro-Phe-Val-Glu-Pro-Ile-OH (YPFVEPI-OH) [Peptide 1]”: in the assay on spleen cells, the “IFNγ spleen cells; TH1 response (% of control)” value is 218.6 % of control, the “IL-2 spleen cells (% of control)” value was 96.9 % of control, the “IL-4 spleen cells; TH2 response (% of control)” value was 142.1 % of control and the “IL-5 spleen cells; TH2 response (% of control)” value is listed as 81.6 % of control. For the same substance, the “TNF-a spleen cells; TH1 response (% of control)” value in the assay on spleen cells is 143.7 % of control. For the same substance, in assay [1], the “induction of the proliferation of specifically stimulated human B-cells” value is on record as “did not induce”. Further, in assay [2], the “inhibition of HBV replication as compared to the virus control infection” value is 23.8%. Moreover, in the assay with human macrophages, the “induction of the LPS-induced TNF-alpha production in human macrophages” value was found to be 18.4%. The “prevention (reduction) of ceramide-induced apoptosis on human lung cells” value in the assay on Human A549 cells is given as 37.3%. For the same substance, in assay [3], the “% of PHA induced Control (T cell proliferation)” value is recorded as 98.8%.
